Experimental data reported in patent US6541631B1, “Methods of separating FTC isomers and derivatives thereof” (Pharma-Eco Laboratories, Inc., priority 1999, dated 2003).
Values belong to the compound of their own block, whether it stands above or below them.

Experiment: Solubility of cis-FTC Ester and cis-FTC Alcohol in various solvent systems
Format: physicochemical
Experimental: Therefore, the solubility of the FTC ester in several solvent systems was determined.
Therefore, the solubility of the cis-FTC Alcohol in several solvent systems was determined.

Solubility (100% acetonitrile, RT): 0.38%
Solubility (100% ethanol, RT): 0.51%
Solubility (100% isopropyl alcohol, RT): 0.38%
Solubility (100% methanol, 40-45° C.): 3.21%
Solubility (100% methanol, RT): 0.77%
Solubility (100% water, RT): 0.37%
Structure (SMILES): Nc1nc(=O)n([C@@H]2CS[C@H](CO)O2)cc1F (relative stereo) [cis-FTC Alcohol, cis-5-fluoro-1-{2-(hydroxymethyl)-1,3-oxathiolan-5-yl}cytosine]

Solubility (20% isopropyl alcohol/80% water, 40-45° C.): 3.59%
Solubility (50% ethanol/50% methanol, 20° C.): 9.03%
Solubility (70% water/30% 2-propanol, 20° C.): 2.40%
Solubility (70% water/30% 2-propanol, 35° C.): 5.39%
Solubility (74.6% water/13.99% 2-propanol/11.41% butanol, 20° C.): 3.16%
Solubility (74.6% water/13.99% 2-propanol/11.41% butanol, 35° C.): 10.5%
Solubility (80% water/5.5% 2-propanol/14.5% butanol, 20° C.): 2.55%
Solubility (80% water/10% 2-propanol/10% butanol, 20° C.): 2.27%
Solubility (80% water/10% 2-propanol/10% butanol, 35° C.): 5.94%
Solubility (80% water/15% 2-propanol/5% butanol, 20° C.): 2.57%
Solubility (80% water/15% 2-propanol/5% tetrahydrofuran, 20° C.): 0.89%
Solubility (80% water/20% 2-butanol, 20° C.): 3.00%
Solubility (80% water/20% 2-propanol, 20° C.): 1.60%
Solubility (80% water/20% 2-propanol, 35° C.): 3.80%
Solubility (80% water/20% ethanol, 20° C.): 0.52%
Solubility (80% water/20% methanol, 20° C.): 0.81%
Solubility (80% water/20% tetrahydrofuran, 20° C.): 1.80%
Solubility (85% water/10% 2-propanol/5% tetrahydrofuran, 20° C.): 0.64%
Solubility (85% water/15% 2-propanol, 35° C.): 0.70%
Solubility (85% water/15% dimethylformamide, 20° C.): 1.24%
Solubility (90% water/10% dimethylformamide, 20° C.): 1.13%
Solubility (95% water/5% dimethylformamide, 20° C.): 0.47%
Solubility (100% 2-propanol, 35° C.): 2.68%
Solubility (100% acetonitrile, 40-45 C): 3.85%
Solubility (100% acetonitrile, 50° C.): 6.20%
Solubility (100% acetonitrile, RT): 1.41%
Solubility (100% ethanol, 20° C.): 4.36%
Solubility (100% ethanol, RT, 40-45 C): 1.28%
Solubility (100% ethyl acetate, 20° C.): 3.03%??
Solubility (100% isopropyl alcohol, RT, 40-45° C.): 0.38%
Solubility (100% methanol, 20° C.): 11.73%
Structure (SMILES): CCCC(=O)OC[C@@H]1O[C@H](n2cc(F)c(N)nc2=O)CS1 (relative stereo) [cis-FTC Ester, cis-{5-(4-amino-5-fluoro-2-oxo-1(2H)-pyrimidinyl)-1,3-oxathiolan-2-yl}methyl butanoate]
